Results from US20240261351A1, “COMPOSITIONS AND METHODS FOR THE TREATMENT OF BONE AND JOINT DISEASES” (priority 2021, published 2024).
Values joined by “and” are separate entries in the source; they are usually repeats but may differ in a detail not shown here. Equal entries are not always repeated.

Tests used:
[1] = Strontium blood levels by Inductively Coupled Plasma Mass Spectrometry; conditions: for maximum strontium blood level: 10-15 g strontium salt daily split morning and evening plus 50 g Aquamin daily as top dressing for 14 days, blood drawn in the morning before feeding, individual horses
Description: Approximately 4 months into the trial, strontium blood levels were measured in a small group of horses. […] (Li et al., 2009). To measure strontium blood levels, Inductively Coupled Plasma Mass Spectrometry was used (Eurofins Lab, (Wisconsin USA)).
A group of six horses were utilized and were administered the subject compositions for 14 days total. The compositions were added to morning and evening feed as a top dressing. All subjects received 50 g of “Aquamin” daily given as 25 g in morning and 25 g in evening. Three horses received Strontium ranelate at 10 g, 12 g, and 15 g daily split between the morning and evening. Three horses received Strontium citrate at 10 g, 12 g, and 14 g daily split morning and evening. Blood samples were taken a day 0, 1, 5, 8, 12, and 15 days. Bloods were drawn first thing in the morning before any supplements were fed.

[2] = human, receiving 2 grams per day (AusProtos, 2013); cited from earlier work

Compound	maximum strontium blood level [1]	strontium blood levels [2] [µmol/L]	strontium blood levels compared with strontium ranelate ([1]; six-horse 14 day study with 50 g Aquamin daily)
N#Cc1c(N(CC(=O)[O-])CC(=O)[O-])sc(C(=O)[O-])c1CC(=O)[O-].[Sr+2].[Sr+2] [strontium ranelate, reference compound]	about 7.5 μmole/L	140 to 150	
strontium citrate	9.3 µmol/L and 9.5 µmol/L		comparable
